Laboratory results as given in patent US8163775B2, “Allosteric modulators of metabotropic glutamate receptors” (Addex Pharma SA, priority 2003, dated 2012).

Tests used:
[1] = molecular target: orthosteric glutamate site of mGluR5 (Homo sapiens, UniProt P41594); details: cited from earlier work
mGluR5 [2] = molecular target: mGluR5 (Homo sapiens, UniProt P41594); details: cited from earlier work
mGluR5 [3] = molecular target: T1, mGluR5 (Rattus norvegicus, UniProt P31424); test: mGluR5 assay on rat cultured cortical astrocytes (Ca2+ mobilization, FLIPR); type: cell-based; details: for increase of 1 μM glutamate-induced Ca2+ mobilization: 3 μM compound, 1 μM glutamate (EC20), rat cultured astrocytes, FIG. 1; for agonistic activity in the absence of glutamate: no glutamate, compared to buffer value
T1 construct: a functional expression of mGluR5 receptors; endogenous in cells; host or cells: primary cortical astrocytes from Sprague-Dawley rat embryos (15 days), treated with bFGF and EGF
Protocol: For subsequent seeding, the FCS supplementation was reduced to 10%. After 12 days, cells were subplated by trypsinisation onto poly-D-lysine precoated 384-well plates at a density of 20.000 cells per well in culture buffer supplemented with […] βFGF (basic fibroblast growth factor) (Invitrogen, Basel, Switzerland) and 10 ng/ml EGF (epidermal growth factor) (Invitrogen, Basel, Switzerland).
After 60 min of loading with 4 uM Fluo-4 (TefLabs, Austin, Tex.), the cells were washed three times with 50 μl of PBS Buffer and resuspended in 45 μl of Assay Buffer. The plates were then transferred to a Fluorometric Imaging Plate Reader (FLIPR, Molecular Devices, Sunnyvale, Calif.) for the assessment of intracellular calcium flux. […] The final DMSO concentration in the assay was 0.3%. In each experiment, fluorescence was then monitored as a function of time for 3 minutes and the data analyzed using Microsoft Excel and GraphPad Prism. Each data point was also measured two times.
The concentration-response curves of representative compounds of the present invention in the presence of EC20 of glutamate were generated using the Prism GraphPad program (Graph Pad Software Inc, San Diego, USA).

T1 sequence (P31424 21-1203): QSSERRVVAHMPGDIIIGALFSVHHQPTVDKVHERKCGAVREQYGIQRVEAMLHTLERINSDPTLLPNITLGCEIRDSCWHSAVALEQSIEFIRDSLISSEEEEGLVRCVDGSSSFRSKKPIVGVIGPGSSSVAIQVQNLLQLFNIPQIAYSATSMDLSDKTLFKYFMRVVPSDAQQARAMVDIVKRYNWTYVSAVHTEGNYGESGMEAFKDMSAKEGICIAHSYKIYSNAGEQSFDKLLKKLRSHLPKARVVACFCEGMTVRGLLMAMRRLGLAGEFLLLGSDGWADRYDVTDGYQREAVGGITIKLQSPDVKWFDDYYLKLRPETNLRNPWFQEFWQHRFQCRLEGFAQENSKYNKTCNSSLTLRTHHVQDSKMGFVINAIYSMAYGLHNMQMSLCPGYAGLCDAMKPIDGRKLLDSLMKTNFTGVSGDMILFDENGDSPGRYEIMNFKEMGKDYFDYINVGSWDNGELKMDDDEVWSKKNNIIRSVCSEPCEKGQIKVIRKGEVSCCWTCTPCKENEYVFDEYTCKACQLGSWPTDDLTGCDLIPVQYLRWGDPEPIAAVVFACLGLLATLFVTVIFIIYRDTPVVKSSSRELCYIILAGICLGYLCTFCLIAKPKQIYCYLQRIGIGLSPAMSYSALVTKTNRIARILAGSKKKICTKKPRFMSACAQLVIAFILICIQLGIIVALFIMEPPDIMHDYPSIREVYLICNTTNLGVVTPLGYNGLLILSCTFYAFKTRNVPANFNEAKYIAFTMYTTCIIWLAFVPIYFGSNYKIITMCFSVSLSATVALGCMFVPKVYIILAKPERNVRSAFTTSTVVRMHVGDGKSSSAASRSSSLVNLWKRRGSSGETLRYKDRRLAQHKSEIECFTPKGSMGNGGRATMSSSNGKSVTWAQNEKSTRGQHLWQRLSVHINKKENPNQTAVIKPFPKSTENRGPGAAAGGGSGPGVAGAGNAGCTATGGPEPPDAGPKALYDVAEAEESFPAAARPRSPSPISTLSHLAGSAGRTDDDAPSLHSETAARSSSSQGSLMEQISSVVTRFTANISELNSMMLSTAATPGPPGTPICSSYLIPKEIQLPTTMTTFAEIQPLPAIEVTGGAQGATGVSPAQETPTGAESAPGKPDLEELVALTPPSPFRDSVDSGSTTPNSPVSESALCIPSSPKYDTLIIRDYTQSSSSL
mGluR5 (Homo sapiens, UniProt P41594), sequence (P41594 21-1212): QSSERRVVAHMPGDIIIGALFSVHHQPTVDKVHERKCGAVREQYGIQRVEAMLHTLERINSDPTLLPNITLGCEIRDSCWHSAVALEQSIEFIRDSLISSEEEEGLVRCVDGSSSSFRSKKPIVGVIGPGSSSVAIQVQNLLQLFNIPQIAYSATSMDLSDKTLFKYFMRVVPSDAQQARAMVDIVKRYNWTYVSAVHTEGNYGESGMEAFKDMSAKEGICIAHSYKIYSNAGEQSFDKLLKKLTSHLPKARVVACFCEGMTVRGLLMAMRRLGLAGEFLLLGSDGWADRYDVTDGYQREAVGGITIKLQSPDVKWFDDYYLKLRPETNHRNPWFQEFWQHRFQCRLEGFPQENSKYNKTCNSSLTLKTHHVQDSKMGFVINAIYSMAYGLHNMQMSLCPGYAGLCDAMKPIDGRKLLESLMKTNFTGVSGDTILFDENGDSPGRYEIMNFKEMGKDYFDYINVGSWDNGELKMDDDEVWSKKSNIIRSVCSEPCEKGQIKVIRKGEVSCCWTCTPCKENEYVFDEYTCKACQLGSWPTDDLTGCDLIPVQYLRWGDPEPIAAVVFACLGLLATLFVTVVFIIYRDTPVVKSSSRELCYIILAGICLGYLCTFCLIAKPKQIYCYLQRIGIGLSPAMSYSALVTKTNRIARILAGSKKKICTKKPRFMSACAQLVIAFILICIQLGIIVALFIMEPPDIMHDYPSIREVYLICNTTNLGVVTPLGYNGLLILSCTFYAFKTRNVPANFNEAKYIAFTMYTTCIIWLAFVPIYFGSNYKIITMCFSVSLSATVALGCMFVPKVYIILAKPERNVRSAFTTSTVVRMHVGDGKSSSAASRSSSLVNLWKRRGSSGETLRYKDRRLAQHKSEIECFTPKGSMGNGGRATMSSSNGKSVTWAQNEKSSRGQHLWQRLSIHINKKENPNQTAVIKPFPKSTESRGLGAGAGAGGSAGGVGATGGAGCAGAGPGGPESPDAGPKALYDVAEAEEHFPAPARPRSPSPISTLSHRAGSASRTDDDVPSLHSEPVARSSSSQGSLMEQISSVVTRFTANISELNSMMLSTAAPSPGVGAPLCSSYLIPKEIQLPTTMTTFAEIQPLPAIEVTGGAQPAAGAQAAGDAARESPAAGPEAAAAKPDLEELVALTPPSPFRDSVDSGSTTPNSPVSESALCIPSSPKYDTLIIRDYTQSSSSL
orthosteric glutamate site of mGluR5, sequence (P41594 21-1212): as above

SMILES	inhibition of the binding of [3H]-quisqualate to the orthosteric glutamate site [1]	in vitro potency as mGluR5 positive allosteric modulator (mGluR5 [2])	increase of 1 μM glutamate-induced Ca2+ mobilization (mGluR5 [3])	agonistic activity in the absence of glutamate (mGluR5 [3])
Fc1cccc(C=NN=Cc2cccc(F)c2)c1 [DFB, 3,3′-Difluorobenzaldazine]	not able to inhibit	low in vitro potency	–	–
O=C(c1ccc(F)cc1)N1CCC[C@H](c2nc(-c3ccccc3F)no2)C1 [Example 55, (4-Fluoro-phenyl)-{(S)-3-[3-(2-fluoro-phenyl)-[1,2,4]oxadiazol-5-yl]-piperidin-1-yl}-methanone]	–	–	increase	no statistically significant agonistic activity
O=C(c1ccc(F)cc1)N1CCC[C@H](c2nc(-c3ccccn3)no2)C1 [Example 56, (4-Fluoro-phenyl)-[(S)-3-(3-pyridin-2-yl-[1,2,4]oxadiazol-5-yl)-piperidin-1-yl]-methanone]	–	–	increase	no statistically significant agonistic activity
